Data taken from US20250313533A1, “QUINOLINE CARBOXYLIC ACID ESTER COMPOUND AND PREPARATION METHOD AND USE THEREOF” (priority 2019, published 2025).

Key:
[1] = test system: pathogenic bacteria causing bacterial angular leaf spot in cucumbers; assay: In vitro bactericidal activity, bacterial angular leaf spot in cucumbers; assay type: cell-based, pseudomonas; conditions: read-out: inhibitory rate; for inhibition at 1 ppm: dosage 1 ppm; for inhibition at 5 ppm: dosage 5 ppm
[2] = test system: pathogenic bacteria causing bacterial wilt in tobacco; assay: whole plant or invertebrate; assay type: cell-based, ralstonia; conditions: read-out: inhibitory rate
[3] = test system: pathogenic bacteria causing black shank in potatoes; assay: In vitro bactericidal activity, black shank in potatoes; assay type: cell-based; conditions: read-out: inhibitory rate; for inhibition at 1 ppm: dosage 1 ppm; for inhibition at 5 ppm: dosage 5 ppm
[4] = test system: pathogenic bacteria causing stem rot in sweet potatoes; assay: In vitro bactericidal activity, stem rot in sweet potatoes; assay type: cell-based, dikia; conditions: read-out: inhibitory rate; for inhibition at 1 ppm: dosage 1 ppm; for inhibition at 5 ppm: dosage 5 ppm
[5] = test system: pathogenic bacteria causing bacterial blight in rice; assay: whole plant or invertebrate; assay type: cell-based, xanthomonas; conditions: read-out: inhibitory rate
[6] = test system: pathogenic bacteria causing fruit blotch in watermelons; assay: In vitro bactericidal activity, fruit blotch in watermelons; assay type: cell-based, acidovorax; conditions: read-out: inhibitory rate; for inhibition at 1 ppm: dosage 1 ppm; for inhibition at 5 ppm: dosage 5 ppm
[7] = test system: pathogenic bacteria causing black rot in Chinese cabbages; assay: In vitro bactericidal activity, black rot in Chinese cabbages; assay type: cell-based, xanthomonas; conditions: Xanthomonas, read-out: inhibitory rate; for inhibition at 1 ppm: dosage 1 ppm; for inhibition at 5 ppm: dosage 5 ppm
[8] = test system: pathogenic bacteria causing bacterial wilt in cassava; assay: organism not typed; assay type: cell-based; conditions: read-out: inhibitory rate
[9] = test system: pathogenic bacteria causing fire blight in pears; assay: In vitro bactericidal activity, fire blight in pears; assay type: cell-based, erwinia; conditions: Erwinia, read-out: inhibitory rate; for inhibition at 1 ppm: dosage 1 ppm; for inhibition at 5 ppm: dosage 5 ppm
[10] = test system: black shank in potatoes; assay: Living crops in vivo protective activity, potatoes (root irrigation); conditions: Solanum tuberosum, read-out: efficacy against black shank in potatoes; for pest or weed control at 5 ppm: dosage 5 ppm; for pest or weed control at 10 ppm: dosage 10 ppm
Description: Root irrigation was carried out on the potatoes for tests according to the designed concentration of the agents. The dosage for each plant was 200 mL and was kept consistent (also for the control). The black shank bacteria were inoculated on the second day after the application. The results were investigated according to the disease condition.

[11] = test system: indoor potted cucumber seedlings; assay: Effect of improving growth and development of crops; assay type: in vivo; parameters: Rate of growth rate increase (%): concentration or dose not given beside the values; conditions: versus blank control; for Rate of chlorophyll content increase (%) / Rate of leaf area increase (%): 14 days after application; for Rate of growth rate increase (%): plant height 14 days after application; for Rate of leaf area increase (%): second leaf
Description: Taking indoor potted cucumber seedlings as an example, the influence of the compound disclosed herein on growth rate of plant height, chlorophyll content, leaf area, etc. of crops was mainly evaluated.
The plant heights of plants before application and 14 days after the application were measured.
The growth rates were calculated according to formula (1)
The rates of the growth rate increase (%) were calculated according to formula (2)
The longitudinal and transverse diameters (i.e., leaf length and leaf width, respectively, wherein the leaf length is the distance from the base to the tip of a leaf, and leaf width is the measured value of the upper shoulder width of the leaf) of the second leaf of plants before application and 14 days after the application were measured.
The leaf areas were calculated according to formula (3)
The leaf area increases were calculated according to formula (4)
The rates of the leaf area increases were calculated according to formula (5)
The chlorophyll contents of leaves were measured by using a chlorophyll measuring instrument (model: SPAD-520 Plus).
The chlorophyll content increases were calculated according to formula (6)
The rates of the chlorophyll content increases were calculated according to formula (7)

[12] = test system: cucumber seedlings; assay: Safety for plant growth after application; assay type: in vivo; conditions: dosage 200 ppm
How it was run: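 Indoor potted cucumber seedlings were treated with the compounds, and crop safety was judged from effects on plant height growth rate, chlorophyll content and leaf area.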

[13] = test system: bacterial wilt in tobacco; assay: whole plant or invertebrate; conditions: Nicotiana tabacum, read-out: efficacy against bacterial wilt in tobacco
[14] = test system: stem rot in sweet potatoes; assay: whole plant or invertebrate; conditions: read-out: efficacy against stem rot in sweet potatoes
[15] = test system: bacterial blight in rice; assay: whole plant or invertebrate; conditions: Oryza sativa, read-out: efficacy against bacterial blight in rice
[16] = test system: fruit blotch in watermelons; assay: whole plant or invertebrate; conditions: read-out: efficacy against fruit blotch in watermelons
[17] = test system: soft rot in Chinese cabbages; assay: whole plant or invertebrate; conditions: 48 h, read-out: efficacy against soft rot in Chinese cabbages

Row | Compound | inhibition at 1 ppm [1] | inhibition at 5 ppm [1] | inhibition at 1 ppm [2] | inhibition at 5 ppm [2] | inhibition at 1 ppm [3] | inhibition at 5 ppm [3] | inhibition at 1 ppm [4] | inhibition at 5 ppm [4] | inhibition at 1 ppm [5] | inhibition at 5 ppm [5] | inhibition at 1 ppm [6] | inhibition at 5 ppm [6] | inhibition at 1 ppm [7] | inhibition at 5 ppm [7] | inhibition at 1 ppm [8] | inhibition at 5 ppm [8] | inhibition at 1 ppm [9] | inhibition at 5 ppm [9] | pest or weed control at 5 ppm [10] | pest or weed control at 10 ppm [10] | other results
1 | COCCOC(=O)c1cn(C2CC2)c2cc(F)ccc2c1=O [Compound 195] | ≥ 90% | ≥ 90% | ≥ 90% | ≥ 90% | ≥ 90% | ≥ 90% | ≥ 90% | ≥ 90% | ≥ 90% | ≥ 90% | ≥ 90% | ≥ 90% | ≥ 90% | ≥ 90% | ≥ 90% | ≥ 90% | ≥ 90% | ≥ 90% | ≥ 90% | ≥ 90% | Rate of chlorophyll content increase (%) [11]: 12%; Rate of growth rate increase (%) [11]: 7%; Rate of leaf area increase (%) [11]: 9%; safety for plant growth (discoloration, necrosis, wilt, malformation) [12]: safe for plant growth; pest or weed control at 5 ppm [13]: ≥ 90%; pest or weed control at 10 ppm [13]: ≥ 90%; pest or weed control at 5 ppm [14]: ≥ 90%; pest or weed control at 10 ppm [14]: ≥ 90%; pest or weed control at 5 ppm [15]: ≥ 90%; pest or weed control at 10 ppm [15]: ≥ 90%; pest or weed control at 5 ppm [16]: ≥ 90%; pest or weed control at 10 ppm [16]: ≥ 90%; pest or weed control at 5 ppm [17]: ≥ 90%; pest or weed control at 10 ppm [17]: ≥ 90%
2 | O=C(OCCCO)c1cn(C2CC2)c2cc(F)ccc2c1=O [Compound 207] | ≥ 90% | ≥ 90% | ≥ 90% | ≥ 90% | ≥ 90% | ≥ 90% | ≥ 90% | ≥ 90% | ≥ 90% | ≥ 90% | ≥ 90% | ≥ 90% | ≥ 90% | ≥ 90% | ≥ 90% | ≥ 90% | ≥ 90% | ≥ 90% | ≥ 90% | ≥ 90% | Rate of chlorophyll content increase (%) [11]: 13%; Rate of growth rate increase (%) [11]: 6%; Rate of leaf area increase (%) [11]: 10%; safety for plant growth (discoloration, necrosis, wilt, malformation) [12]: safe for plant growth; pest or weed control at 5 ppm [13]: ≥ 90%; pest or weed control at 10 ppm [13]: ≥ 90%; pest or weed control at 5 ppm [14]: ≥ 90%; pest or weed control at 10 ppm [14]: ≥ 90%; pest or weed control at 5 ppm [15]: ≥ 90%; pest or weed control at 10 ppm [15]: ≥ 90%; pest or weed control at 5 ppm [16]: ≥ 90%; pest or weed control at 10 ppm [16]: ≥ 90%; pest or weed control at 5 ppm [17]: ≥ 90%; pest or weed control at 10 ppm [17]: ≥ 90%
3 | COCCCOC(=O)c1cn(C2CC2)c2cc(F)ccc2c1=O [Compound 208] | ≥ 90% | ≥ 90% | ≥ 90% | ≥ 90% | ≥ 90% | ≥ 90% | ≥ 90% | ≥ 90% | ≥ 90% | ≥ 90% | ≥ 90% | ≥ 90% | ≥ 90% | ≥ 90% | ≥ 90% | ≥ 90% | ≥ 90% | ≥ 90% | ≥ 90% | ≥ 90% | Rate of chlorophyll content increase (%) [11]: 12%; Rate of growth rate increase (%) [11]: 5%; Rate of leaf area increase (%) [11]: 11%; safety for plant growth (discoloration, necrosis, wilt, malformation) [12]: safe for plant growth; pest or weed control at 5 ppm [13]: ≥ 90%; pest or weed control at 10 ppm [13]: ≥ 90%; pest or weed control at 5 ppm [14]: ≥ 90%; pest or weed control at 10 ppm [14]: ≥ 90%; pest or weed control at 5 ppm [15]: ≥ 90%; pest or weed control at 10 ppm [15]: ≥ 90%; pest or weed control at 5 ppm [16]: ≥ 90%; pest or weed control at 10 ppm [16]: ≥ 90%; pest or weed control at 5 ppm [17]: ≥ 90%; pest or weed control at 10 ppm [17]: ≥ 90%
4 | COc1cc2c(cc1F)c(=O)c(C(=O)OCCO)cn2C1CC1 [Compound 264] | ≥ 90% | ≥ 90% | ≥ 90% | ≥ 90% | ≥ 90% | ≥ 90% | ≥ 90% | ≥ 90% | ≥ 90% | ≥ 90% | ≥ 90% | ≥ 90% | ≥ 90% | ≥ 90% | ≥ 90% | ≥ 90% | ≥ 90% | ≥ 90% | ≥ 90% | ≥ 90% | Rate of chlorophyll content increase (%) [11]: 12%; Rate of growth rate increase (%) [11]: 9%; Rate of leaf area increase (%) [11]: 11%; safety for plant growth (discoloration, necrosis, wilt, malformation) [12]: safe for plant growth; pest or weed control at 5 ppm [13]: ≥ 90%; pest or weed control at 10 ppm [13]: ≥ 90%; pest or weed control at 5 ppm [14]: ≥ 90%; pest or weed control at 10 ppm [14]: ≥ 90%; pest or weed control at 5 ppm [15]: ≥ 90%; pest or weed control at 10 ppm [15]: ≥ 90%; pest or weed control at 5 ppm [16]: ≥ 90%; pest or weed control at 10 ppm [16]: ≥ 90%; pest or weed control at 5 ppm [17]: ≥ 90%; pest or weed control at 10 ppm [17]: ≥ 90%
5 | CCOc1cc2c(cc1F)c(=O)c(C(=O)OCCO)cn2C1CC1 [Compound 265] | ≥ 90% | ≥ 90% | ≥ 90% | ≥ 90% | ≥ 90% | ≥ 90% | ≥ 90% | ≥ 90% | ≥ 90% | ≥ 90% | ≥ 90% | ≥ 90% | ≥ 90% | ≥ 90% | ≥ 90% | ≥ 90% | ≥ 90% | ≥ 90% | ≥ 90% | ≥ 90% | Rate of chlorophyll content increase (%) [11]: 13%; Rate of growth rate increase (%) [11]: 12%; Rate of leaf area increase (%) [11]: 15%; safety for plant growth (discoloration, necrosis, wilt, malformation) [12]: safe for plant growth; pest or weed control at 5 ppm [13]: ≥ 90%; pest or weed control at 10 ppm [13]: ≥ 90%; pest or weed control at 5 ppm [14]: ≥ 90%; pest or weed control at 10 ppm [14]: ≥ 90%; pest or weed control at 5 ppm [15]: ≥ 90%; pest or weed control at 10 ppm [15]: ≥ 90%; pest or weed control at 5 ppm [16]: ≥ 90%; pest or weed control at 10 ppm [16]: ≥ 90%; pest or weed control at 5 ppm [17]: ≥ 90%; pest or weed control at 10 ppm [17]: ≥ 90%
